# Values of other authors in US8993576B2, “6-(1H-indol-4-yl)-4-(5-{[4-1-methylethyl)-1-piperazinyl]methyl}-1,3-oxazol-2-yl)-1H-indazole hemi succinate salt, polymorphs and pharmaceutical compositions thereof” (Glaxo Group Limited, priority 2010, dated 2015).
# Like-named read-outs stand apart in the source and are kept apart here.
# Tests used:
# CK2 protein kinase = CK2 protein kinase (Homo sapiens, UniProt P68400); conditions: read-out: IC50 on CK2 protein kinase
# neutrophils [1] = test system: neutrophils
# neutrophils [2] = test system: neutrophils; remark: listed apart in the source
# neutrophils [3] = conditions: treatment of neutrophils; Thelen et al. 1994
# Chain of CK2 protein kinase (P68400 whole entry): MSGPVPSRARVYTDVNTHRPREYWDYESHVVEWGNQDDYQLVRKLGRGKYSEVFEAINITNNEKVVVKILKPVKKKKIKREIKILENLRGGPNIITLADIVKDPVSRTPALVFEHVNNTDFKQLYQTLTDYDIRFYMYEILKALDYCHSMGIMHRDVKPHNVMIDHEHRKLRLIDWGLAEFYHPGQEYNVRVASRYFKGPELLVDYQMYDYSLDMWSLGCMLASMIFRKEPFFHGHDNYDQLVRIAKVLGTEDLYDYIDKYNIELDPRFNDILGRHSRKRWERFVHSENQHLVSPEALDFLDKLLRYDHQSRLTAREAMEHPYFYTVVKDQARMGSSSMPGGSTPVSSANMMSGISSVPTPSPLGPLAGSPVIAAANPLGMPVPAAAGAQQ
SMILES,"IC50 (Class I PI3-kinases; each of the Class I PI3-kinases, Fruman et al. 1998, read-out: IC50 values against each of these PI3-kinases)",IC50 (CK2 protein kinase),inhibitory activity on phospholipases (phospholipases),effect on neutrophil migration (neutrophils [1]),effect on superoxide release (neutrophils [2]),"IC50 (Class I PI3-kinases; each of the four Class I PI3-kinases, read-out: IC50 values against each of the various Class I PI3-kinases)",effect on fMLP-induced respiratory burst response (neutrophils [3])
O=c1cc(N2CCOCC2)oc2c(-c3ccccc3)cccc12 [LY294002],15 to 20 µM,5 to 10 µM,some inhibitory activity,block,block,,
COC[C@H]1OC(=O)c2coc3c2[C@@]1(C)C1=C(C3=O)[C@@H]2CCC(=O)[C@@]2(C)C[C@H]1OC(C)=O [wortmannin],,,,block,block,0.001 to 0.01 µM,prevents
